Results: paper PMC5462101 (Future medicinal chemistry, 2015)

Key:
soybean lipoxygenase = target: T1, soybean lipoxygenase (Glycine max, UniProt P08170); assay: Inhibition of soybean lipoxygenase; format: biochemical; conditions: sodium linoleate 0.1 mM, read-out: Lipoxygenase inhibitory activity (IC50)
T1 construct: purchased Sigma
T1 sequence (P08170 1-839): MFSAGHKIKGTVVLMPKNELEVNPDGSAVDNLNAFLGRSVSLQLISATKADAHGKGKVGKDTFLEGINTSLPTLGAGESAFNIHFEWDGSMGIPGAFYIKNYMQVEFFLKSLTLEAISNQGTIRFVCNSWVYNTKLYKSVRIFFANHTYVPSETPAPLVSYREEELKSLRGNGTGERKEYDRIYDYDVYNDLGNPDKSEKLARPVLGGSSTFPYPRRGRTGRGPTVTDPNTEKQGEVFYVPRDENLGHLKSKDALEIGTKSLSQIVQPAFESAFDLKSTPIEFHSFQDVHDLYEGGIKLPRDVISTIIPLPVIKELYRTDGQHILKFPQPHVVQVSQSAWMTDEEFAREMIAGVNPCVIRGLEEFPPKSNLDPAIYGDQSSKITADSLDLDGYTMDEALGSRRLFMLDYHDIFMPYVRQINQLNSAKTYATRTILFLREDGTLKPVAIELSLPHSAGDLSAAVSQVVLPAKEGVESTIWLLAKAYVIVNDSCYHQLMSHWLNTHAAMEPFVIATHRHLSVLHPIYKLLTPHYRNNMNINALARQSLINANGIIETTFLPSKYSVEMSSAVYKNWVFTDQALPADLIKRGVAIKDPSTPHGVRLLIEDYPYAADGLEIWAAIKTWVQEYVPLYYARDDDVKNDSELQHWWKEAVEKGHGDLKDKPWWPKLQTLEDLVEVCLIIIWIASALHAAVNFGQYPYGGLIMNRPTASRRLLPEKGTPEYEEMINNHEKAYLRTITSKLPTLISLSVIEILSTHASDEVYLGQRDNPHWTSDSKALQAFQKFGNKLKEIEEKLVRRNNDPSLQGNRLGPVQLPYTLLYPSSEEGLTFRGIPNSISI
Protocol: The substituted pteridines prepared were assayed for inhibition of soybean lipoxygenase (Table 1) (Supplementary Information). Many studies have used readily obtainable soybean lipoxygenase, which is a homologue of mammalian lipoxygenase and well examined. The availability of soybean LOX and its well-characterized crystal structure led to its use in this study.
Determination of soybean lipoxygenase inhibition
A solution in DMSO of each compound to be tested was incubated at room temperature with sodium linoleate (0.1 mM) and a solution of soybean lipoxygenase (EC 1.13.11.12) (1:9 x 10^4 w/v in saline, 0.2 mL, Sigma). The conversion of sodium linoleate to 13-hydroperoxylinoleic acid was monitored by observation at 234 nm and compared with the value of appropriate standard inhibitor (Table 1).
(§1) IC50 determinations. OriginPro 8 was used to determine IC50 values from the sigmoidal line fitted to a graph of log[concentration] against the average percentage inhibition from two independent experiments, with at least 6 different concentrations. The SEM is the calculated standard error in the IC50 value of the fitted line.

[1] = Inhibition of linoleic acid peroxidation (AAPH); conditions: linoleic acid peroxidation initiated by AAPH, 37 °C, pH 7.4
From the text: Azo compounds that generate free radicals through spontaneous thermal decomposition are useful for in vitro studies of free radical production. The water-soluble AAPH has been extensively used as a clean and controllable source of thermally produced alkylperoxyl free radicals. […] Evidently, the presence of 6,7-dimethyl groups on the pteridine ring greatly enhances protection against lipid peroxidation; the nature of the alkyl group and ring size on the 2-substituent has some, but much less, effect. […] The role of lipophilicity (as assessed from calculated clogP values; Table 1) is not clear, but substituent bulk plays a significant role.
Inhibition of linoleic acid peroxidation
Production of conjugated diene hydroperoxide by oxidation of linoleic acid in an aqueous dispersion was monitored at 234 nm. 2,2’-Azobis(2-amidinopropane) dihydrochloride (AAPH) was used as a free radical initiator. This assay was used to follow oxidative changes and to determine the inhibition of the peroxidation of sodium linoleate by each tested compound. A dispersion of sodium linoleate (16 mM, 10 μL) was added to the UV cuvette containing phosphate buffer (0.05 M, 0.93 mL) at pH 7.4 and kept in a thermostat at 37 °C. The oxidation reaction was initiated at 37 °C under air by the addition of AAPH solution (40 mM, 50 μL). Oxidation was carried out in the presence of aliquots (10 μL) of the tested compound. In the assay without antioxidant, lipid oxidation was measured in the presence of DMSO (10 μL). The rate of oxidation at 37 °C was monitored by recording the increase in absorption at 234 nm caused by conjugated diene hydroperoxide formation (Table 2).
as §1

IC50 (soybean lipoxygenase): 55 ± 0.8 µM
IC50 [1]: 100 ± 1.5 µM
SMILES: CN1CCN(c2nc(NCc3cccs3)c3nccnc3n2)CC1 [Compound 18f, 2-(4-methylpiperazin-1-yl)-N-(thiophen-2-ylmethyl)pteridin-4-amine]
